# Data as given in ChEMBL document CHEMBL1201862, “PubChem BioAssay data set” (2004).
# Calls of active or inactive are those of the source.
# Tests used:
# [1] = target: Keap1/Nrf2 (Homo sapiens, UniProt Q14145); assay: disruptors of Keap1 binding to Nrf2 peptide – biochemical, fluorescence polarization, cherry-picked samples, dose response (AID 588683)
# [2] = tested on: H4; assay: Luminescence Cell-Based Dose Response HTS to Identify Activators of 5'UTR Stem-Loop Driven Prion Protein mRNA Translation in H4 Neuroglioblastoma Cells. [Related pubchem assays: 1829 (Project Summary), 1814 (Primary HTS)]; type: functional; conditions: Homo sapiens
# [3] = Luminescence Cell-Based Dose Confirmation HTS to Identify Activators of 5'UTR Stem-Loop Driven Alpha-Synuclein mRNA Translation in H4 Neuroglioblastoma Cells. [Related pubchem assays: 1829 (Project Summary), 1814 (Primary HTS)]; type: functional
# [4] = target: T1, Corticotropin-releasing factor receptor 2/Corticotropin-releasing factor-binding protein (Homo sapiens, UniProt P24387+Q13324); assay: activators of CRF receptor 2 with binding protein – uHTS hits, confirmation (AID 602473); type: functional; conditions: read-out: EC50_Mean
# T1 sequence (Q13324 whole entry): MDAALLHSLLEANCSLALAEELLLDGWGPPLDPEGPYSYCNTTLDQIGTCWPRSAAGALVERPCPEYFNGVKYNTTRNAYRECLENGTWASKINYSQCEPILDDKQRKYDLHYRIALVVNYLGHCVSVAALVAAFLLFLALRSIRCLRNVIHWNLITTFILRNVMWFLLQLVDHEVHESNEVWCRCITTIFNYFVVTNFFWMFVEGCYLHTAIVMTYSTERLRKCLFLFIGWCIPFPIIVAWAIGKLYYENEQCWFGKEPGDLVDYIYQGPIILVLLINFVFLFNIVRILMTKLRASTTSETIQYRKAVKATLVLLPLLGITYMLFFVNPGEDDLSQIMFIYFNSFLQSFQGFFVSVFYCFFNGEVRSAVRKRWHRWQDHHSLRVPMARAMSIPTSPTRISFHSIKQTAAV
# T1 sequence (P24387 whole entry): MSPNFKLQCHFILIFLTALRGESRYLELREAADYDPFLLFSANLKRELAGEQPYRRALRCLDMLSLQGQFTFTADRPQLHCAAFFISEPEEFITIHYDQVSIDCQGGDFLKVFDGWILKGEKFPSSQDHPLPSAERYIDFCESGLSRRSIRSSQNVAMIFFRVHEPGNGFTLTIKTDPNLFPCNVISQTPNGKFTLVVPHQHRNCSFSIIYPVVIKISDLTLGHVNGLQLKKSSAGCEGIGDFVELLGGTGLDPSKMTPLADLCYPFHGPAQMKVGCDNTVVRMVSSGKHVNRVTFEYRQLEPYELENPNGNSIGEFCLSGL
# [5] = Luminescence Cell-Based Dose Response HTS to Identify Activators of Luciferase Translation or Activity in H4 […] Cells. [Related pubchem assays: 1829 (Project Summary), 1814 (Primary HTS)]; type: functional
# [6] = target: Luciferin 4-monooxygenase (Photinus pyralis, UniProt P08659); assay: inhibition of purified Photinus pyralis luciferase – biochemical, luminescence, dose response (AID 1891)
# [7] = Luminescence Cell-Based Dose Confirmation HTS to Identify Inhibitors of Platelet Dense Granule Release. [Related pubchem assays: 1663 (Primary HTS), 1678 (Summary of Project)]; type: functional
# [8] = target: Cytochrome P450 2C19 (Homo sapiens, UniProt P33261); assay: Cytochrome panel assay with activity outcomes. Panel member name: p450-cyp2c19 Compounds with AC50 equal or less than 10 uM are considered active; type: functional; conditions: read-out: AC50
# [9] = target: Cytochrome P450 2C9 (Homo sapiens, UniProt P11712)
# [10] = target: Cytochrome P450 2D6 (Homo sapiens, UniProt P10635);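 note: CYP2D6 member of a cytochrome P450 panel assay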
# Chain of Cytochrome P450 2D6 (P10635 whole entry): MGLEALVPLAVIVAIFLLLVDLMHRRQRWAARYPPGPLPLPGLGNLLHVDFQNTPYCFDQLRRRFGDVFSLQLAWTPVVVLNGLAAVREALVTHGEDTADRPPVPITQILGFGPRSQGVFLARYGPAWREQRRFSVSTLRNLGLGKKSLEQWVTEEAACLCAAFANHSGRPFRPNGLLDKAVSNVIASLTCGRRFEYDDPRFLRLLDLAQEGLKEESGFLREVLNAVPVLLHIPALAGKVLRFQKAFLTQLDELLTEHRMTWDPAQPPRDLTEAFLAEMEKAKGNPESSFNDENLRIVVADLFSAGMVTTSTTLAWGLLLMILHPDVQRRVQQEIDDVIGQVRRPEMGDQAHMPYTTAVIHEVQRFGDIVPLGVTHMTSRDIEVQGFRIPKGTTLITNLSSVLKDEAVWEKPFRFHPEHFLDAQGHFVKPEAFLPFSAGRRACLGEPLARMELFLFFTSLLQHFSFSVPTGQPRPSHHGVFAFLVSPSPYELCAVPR
# Chain of Keap1/Nrf2 (Q16236 whole entry): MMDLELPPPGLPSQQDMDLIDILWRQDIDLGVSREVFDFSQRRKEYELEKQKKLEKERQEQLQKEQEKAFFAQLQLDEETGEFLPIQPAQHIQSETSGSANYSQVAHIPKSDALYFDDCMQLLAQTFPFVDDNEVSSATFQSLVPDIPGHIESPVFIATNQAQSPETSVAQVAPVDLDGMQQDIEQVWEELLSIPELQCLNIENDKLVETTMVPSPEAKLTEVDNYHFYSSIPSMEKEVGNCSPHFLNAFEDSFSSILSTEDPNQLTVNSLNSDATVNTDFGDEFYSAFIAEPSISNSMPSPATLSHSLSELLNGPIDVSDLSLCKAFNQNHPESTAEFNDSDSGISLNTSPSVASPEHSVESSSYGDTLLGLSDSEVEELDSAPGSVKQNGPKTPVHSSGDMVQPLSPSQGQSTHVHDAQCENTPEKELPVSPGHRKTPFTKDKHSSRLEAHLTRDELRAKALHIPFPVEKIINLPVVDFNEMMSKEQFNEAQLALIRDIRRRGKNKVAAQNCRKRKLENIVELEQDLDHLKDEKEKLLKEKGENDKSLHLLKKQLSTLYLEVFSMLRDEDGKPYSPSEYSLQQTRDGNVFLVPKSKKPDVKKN
# Chain of Keap1/Nrf2 (Q14145 whole entry): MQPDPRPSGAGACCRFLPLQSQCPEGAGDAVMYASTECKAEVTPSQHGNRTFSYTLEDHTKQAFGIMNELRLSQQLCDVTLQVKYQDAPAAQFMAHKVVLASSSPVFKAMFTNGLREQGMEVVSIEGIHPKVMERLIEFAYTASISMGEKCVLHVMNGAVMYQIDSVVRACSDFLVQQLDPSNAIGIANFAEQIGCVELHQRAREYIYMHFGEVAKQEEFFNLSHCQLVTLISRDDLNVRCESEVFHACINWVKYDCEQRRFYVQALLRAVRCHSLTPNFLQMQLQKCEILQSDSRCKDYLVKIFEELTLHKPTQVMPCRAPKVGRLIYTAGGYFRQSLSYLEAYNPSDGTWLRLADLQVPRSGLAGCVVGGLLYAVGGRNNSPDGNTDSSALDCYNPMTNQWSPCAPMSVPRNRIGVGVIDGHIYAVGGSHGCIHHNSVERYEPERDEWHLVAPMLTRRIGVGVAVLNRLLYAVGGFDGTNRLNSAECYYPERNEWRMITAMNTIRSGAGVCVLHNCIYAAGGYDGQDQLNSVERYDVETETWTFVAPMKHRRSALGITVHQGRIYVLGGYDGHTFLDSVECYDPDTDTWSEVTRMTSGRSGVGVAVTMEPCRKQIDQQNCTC
# Chain of Cytochrome P450 2C19 (P33261 whole entry): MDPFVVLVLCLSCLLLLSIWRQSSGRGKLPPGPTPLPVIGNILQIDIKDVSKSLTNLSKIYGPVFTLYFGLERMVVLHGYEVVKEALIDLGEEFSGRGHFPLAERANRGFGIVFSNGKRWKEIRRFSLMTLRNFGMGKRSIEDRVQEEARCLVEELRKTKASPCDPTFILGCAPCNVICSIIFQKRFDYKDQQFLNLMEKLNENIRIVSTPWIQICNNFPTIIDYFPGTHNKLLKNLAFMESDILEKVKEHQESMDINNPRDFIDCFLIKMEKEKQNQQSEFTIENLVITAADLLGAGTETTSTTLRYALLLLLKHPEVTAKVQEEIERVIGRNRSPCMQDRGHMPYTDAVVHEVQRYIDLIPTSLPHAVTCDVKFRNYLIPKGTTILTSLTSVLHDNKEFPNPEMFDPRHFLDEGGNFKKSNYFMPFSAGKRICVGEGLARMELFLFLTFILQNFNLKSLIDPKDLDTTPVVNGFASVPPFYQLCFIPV
# Chain of Luciferin 4-monooxygenase (P08659 whole entry): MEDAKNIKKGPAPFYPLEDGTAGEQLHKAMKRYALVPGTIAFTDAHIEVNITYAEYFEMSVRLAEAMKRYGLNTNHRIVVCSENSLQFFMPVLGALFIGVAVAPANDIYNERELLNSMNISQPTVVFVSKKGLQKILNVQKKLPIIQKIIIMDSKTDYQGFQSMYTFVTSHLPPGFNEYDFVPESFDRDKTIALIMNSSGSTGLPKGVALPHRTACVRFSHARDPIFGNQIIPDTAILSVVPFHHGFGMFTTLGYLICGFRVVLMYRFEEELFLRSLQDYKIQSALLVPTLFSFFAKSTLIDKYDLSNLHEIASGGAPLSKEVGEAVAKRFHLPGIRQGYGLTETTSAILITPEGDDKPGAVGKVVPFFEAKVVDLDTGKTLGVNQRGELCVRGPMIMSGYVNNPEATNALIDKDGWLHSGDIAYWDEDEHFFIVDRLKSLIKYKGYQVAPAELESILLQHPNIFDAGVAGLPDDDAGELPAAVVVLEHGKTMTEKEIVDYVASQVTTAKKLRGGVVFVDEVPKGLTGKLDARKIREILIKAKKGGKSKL
# Chain of Cytochrome P450 2C9 (P11712 whole entry): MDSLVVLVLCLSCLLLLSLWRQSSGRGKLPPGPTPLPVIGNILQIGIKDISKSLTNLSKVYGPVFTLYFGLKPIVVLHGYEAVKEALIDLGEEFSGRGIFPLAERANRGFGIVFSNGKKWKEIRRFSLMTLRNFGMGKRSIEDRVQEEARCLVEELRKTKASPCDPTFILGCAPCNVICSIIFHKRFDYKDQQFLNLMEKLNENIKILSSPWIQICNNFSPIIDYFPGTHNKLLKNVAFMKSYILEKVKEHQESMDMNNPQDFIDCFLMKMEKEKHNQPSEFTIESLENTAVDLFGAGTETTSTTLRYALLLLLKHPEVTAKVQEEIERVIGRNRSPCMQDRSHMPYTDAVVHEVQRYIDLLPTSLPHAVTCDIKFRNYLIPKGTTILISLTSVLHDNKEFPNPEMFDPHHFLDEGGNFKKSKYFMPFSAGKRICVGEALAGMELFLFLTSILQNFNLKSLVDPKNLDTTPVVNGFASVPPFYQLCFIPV
SMILES,AC50 [1],EC50 [2],EC50 [3],EC50 [4],EC50 [5],EC50 [6],EC50 [7],AC50 [8],AC50 [9],AC50 [10]
CCN1C(=O)NC(=O)/C(=C\c2cn(CC(=O)N3CCCCC3)c3ccccc23)C1=O,35.9 µM (active),,,,,,,,,
O=S(=O)([N-]c1nc2ccccc2nc1-[n+]1ccc(-c2ccncc2)cc1)c1ccccc1,31.5 µM (active),> 120 µM (not active),55 µM (active),> 53 µM (inactive),9.78 µM (active),,,,,
Cc1ccc(NC(=O)c2cc(NC(=O)CCCC(=O)O)ccc2Cl)cc1Cl,,,,,,> 112 µM (not active),> 112 µM (not active),0.891 µM (inconclusive),15.8 µM (inconclusive),inconclusive
